Biological target: T1, COX-1 (Ovis aries, UniProt P05979)
T1 construct: purchased Cayman 560131
T1 sequence (P05979 25-600): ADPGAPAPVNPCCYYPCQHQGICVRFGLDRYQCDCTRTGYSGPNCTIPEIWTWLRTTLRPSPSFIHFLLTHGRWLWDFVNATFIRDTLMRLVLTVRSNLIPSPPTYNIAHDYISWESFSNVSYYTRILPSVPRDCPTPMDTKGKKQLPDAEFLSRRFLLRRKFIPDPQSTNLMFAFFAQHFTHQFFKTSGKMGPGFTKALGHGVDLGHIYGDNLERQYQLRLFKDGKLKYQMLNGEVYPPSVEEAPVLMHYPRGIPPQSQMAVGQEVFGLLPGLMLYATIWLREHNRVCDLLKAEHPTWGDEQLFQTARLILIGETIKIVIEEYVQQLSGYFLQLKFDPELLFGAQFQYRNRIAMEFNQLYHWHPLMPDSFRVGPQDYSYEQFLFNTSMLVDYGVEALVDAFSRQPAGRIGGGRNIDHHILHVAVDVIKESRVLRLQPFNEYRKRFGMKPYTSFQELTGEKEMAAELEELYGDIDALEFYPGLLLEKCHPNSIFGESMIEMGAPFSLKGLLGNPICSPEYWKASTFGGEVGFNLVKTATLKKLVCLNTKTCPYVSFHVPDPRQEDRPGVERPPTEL
Assay: COX-1 inhibition assay (Cayman COX kit)
Format: biochemical, ovine/human
Settings: mean ± SE, n = 3
From the text: The requirements for High-Performance Liquid Chromatography (HPLC) and all compounds tested were of the utmost analytical purity. […] COX-1 and COX-2 (ovine/human), as well as the 5-LOX enzyme (human recombinant) were obtained from Sigma-Aldrich. Dulbecco’s Modified Eagle’s Medium (DMEM), along with penicillin/streptomycin and L-glutamine, were acquired from Gibco BRL, California, USA. Fetal bovine serum (FBS) and 3-(4, 5-dimethylthiazol-2-yl)-2, 5-[…] (MTT) were supplied by Sigma-Aldrich, St. Louis, Missouri, USA.
The methanolic extract of V. odorata flowers and isolated flavonoids were subjected to an in vitro anti-inflammatory assessment by inhibiting two isoenzymes, cyclooxygenase COX-1 and COX-2 (ovine/human), as well as the 5-LOX enzyme (human recombinant).

- IC50: 3.93 µM
Compound: COc1c(O)cc2oc(-c3ccccc3)c(OC)c(=O)c2c1O [5,7-Dihydroxy-3,6-dimethoxyflavone]
